Test results from the NIST ThermoML archive (doi:10.1021/je200195q).
Numbers after ± are expanded uncertainties.

Assay: activity coefficient (dimensionless); of the first substance listed, at infinite dilution; xn = mol fraction of the nth substance listed
Conditions: 332.85 K; 101 kPa; Liquid; Chromatography; x1 = 0

Structure (SMILES) | activity coefficient
CC(C)OC(C)C [diisopropyl ether] + CCCCCC[n+]1ccn(C)c1.FC(F)(F)C(F)(F)[P-](F)(F)(F)(C(F)(F)C(F)(F)F)C(F)(F)C(F)(F)F | 1.7 ± 0.11
CCCCCCCCCCCC [dodecane] + CCCCCC[n+]1ccn(C)c1.FC(F)(F)C(F)(F)[P-](F)(F)(F)(C(F)(F)C(F)(F)F)C(F)(F)C(F)(F)F | 33.1 ± 2.3
CCO [ethanol] + CCCCCC[n+]1ccn(C)c1.FC(F)(F)C(F)(F)[P-](F)(F)(F)(C(F)(F)C(F)(F)F)C(F)(F)C(F)(F)F | 1.69 ± 0.11
CCc1ccccc1 [ethylbenzene] + CCCCCC[n+]1ccn(C)c1.FC(F)(F)C(F)(F)[P-](F)(F)(F)(C(F)(F)C(F)(F)F)C(F)(F)C(F)(F)F | 1.03 ± 0.065

Same assay, conditions: 333.15 K; 101 kPa; Liquid; Chromatography; x1 = 0

Structure (SMILES) | activity coefficient
c1ccccc1 [benzene] + CCCCCCCCCCn1cc[n+](CCCCCCCCCC)c1C.O=S(=O)([N-]S(=O)(=O)C(F)(F)F)C(F)(F)F | 0.431 ± 0.035
CCCCO [butan-1-ol] + CCCCCCCCCCn1cc[n+](CCCCCCCCCC)c1C.O=S(=O)([N-]S(=O)(=O)C(F)(F)F)C(F)(F)F | 1.2 ± 0.077
CCC(C)=O [butanone] + CCCCCCCCCCn1cc[n+](CCCCCCCCCC)c1C.O=S(=O)([N-]S(=O)(=O)C(F)(F)F)C(F)(F)F | 0.292 ± 0.031
C1CCCCCC1 [cycloheptane] + CCCCCCCCCCn1cc[n+](CCCCCCCCCC)c1C.O=S(=O)([N-]S(=O)(=O)C(F)(F)F)C(F)(F)F | 4.46 ± 0.3
C1CCCCC1 [cyclohexane] + CCCCCCCCCCn1cc[n+](CCCCCCCCCC)c1C.O=S(=O)([N-]S(=O)(=O)C(F)(F)F)C(F)(F)F | 1.28 ± 0.083
CCCCCCCCCC [decane] + CCCCCCCCCCn1cc[n+](CCCCCCCCCC)c1C.O=S(=O)([N-]S(=O)(=O)C(F)(F)F)C(F)(F)F | 3.46 ± 0.24
ClCCl [dichloromethane] + CCCCCCCCCCn1cc[n+](CCCCCCCCCC)c1C.O=S(=O)([N-]S(=O)(=O)C(F)(F)F)C(F)(F)F | 0.341 ± 0.032
CCOCC [diethyl ether] + CCCCCCCCCCn1cc[n+](CCCCCCCCCC)c1C.O=S(=O)([N-]S(=O)(=O)C(F)(F)F)C(F)(F)F | 0.771 ± 0.05
CC(C)OC(C)C [diisopropyl ether] + CCCCCCCCCCn1cc[n+](CCCCCCCCCC)c1C.O=S(=O)([N-]S(=O)(=O)C(F)(F)F)C(F)(F)F | 1.23 ± 0.079
CCO [ethanol] + CCCCCCCCCCn1cc[n+](CCCCCCCCCC)c1C.O=S(=O)([N-]S(=O)(=O)C(F)(F)F)C(F)(F)F | 1.15 ± 0.073
CCc1ccccc1 [ethylbenzene] + CCCCCCCCCCn1cc[n+](CCCCCCCCCC)c1C.O=S(=O)([N-]S(=O)(=O)C(F)(F)F)C(F)(F)F | 0.662 ± 0.045

Same assay, conditions: 342.75 K; 101 kPa; Liquid; Chromatography; x1 = 0

Structure (SMILES) | activity coefficient
c1ccccc1 [benzene] + CCCCn1cc[n+](C)c1.O=S(=O)([N-]S(=O)(=O)C(F)(F)C(F)(F)F)C(F)(F)C(F)(F)F | 1.02 ± 0.064
CCCCO [butan-1-ol] + CCCCn1cc[n+](C)c1.O=S(=O)([N-]S(=O)(=O)C(F)(F)C(F)(F)F)C(F)(F)C(F)(F)F | 2 ± 0.14
CCC(C)=O [butanone] + CCCCn1cc[n+](C)c1.O=S(=O)([N-]S(=O)(=O)C(F)(F)C(F)(F)F)C(F)(F)C(F)(F)F | 0.389 ± 0.034
C1CCCCCC1 [cycloheptane] + CCCCn1cc[n+](C)c1.O=S(=O)([N-]S(=O)(=O)C(F)(F)C(F)(F)F)C(F)(F)C(F)(F)F | 35.2 ± 2.4
C1CCCCC1 [cyclohexane] + CCCCn1cc[n+](C)c1.O=S(=O)([N-]S(=O)(=O)C(F)(F)C(F)(F)F)C(F)(F)C(F)(F)F | 6.12 ± 0.42
CCCCCCCCCC [decane] + CCCCn1cc[n+](C)c1.O=S(=O)([N-]S(=O)(=O)C(F)(F)C(F)(F)F)C(F)(F)C(F)(F)F | 33.3 ± 2.3
ClCCl [dichloromethane] + CCCCn1cc[n+](C)c1.O=S(=O)([N-]S(=O)(=O)C(F)(F)C(F)(F)F)C(F)(F)C(F)(F)F | 0.436 ± 0.035
CCOCC [diethyl ether] + CCCCn1cc[n+](C)c1.O=S(=O)([N-]S(=O)(=O)C(F)(F)C(F)(F)F)C(F)(F)C(F)(F)F | 1.7 ± 0.11
CC(C)OC(C)C [diisopropyl ether] + CCCCn1cc[n+](C)c1.O=S(=O)([N-]S(=O)(=O)C(F)(F)C(F)(F)F)C(F)(F)C(F)(F)F | 3.46 ± 0.23
CCCCCCCCCCCC [dodecane] + CCCCn1cc[n+](C)c1.O=S(=O)([N-]S(=O)(=O)C(F)(F)C(F)(F)F)C(F)(F)C(F)(F)F | 62 ± 4.2
CCO [ethanol] + CCCCn1cc[n+](C)c1.O=S(=O)([N-]S(=O)(=O)C(F)(F)C(F)(F)F)C(F)(F)C(F)(F)F | 1.37 ± 0.089
CCc1ccccc1 [ethylbenzene] + CCCCn1cc[n+](C)c1.O=S(=O)([N-]S(=O)(=O)C(F)(F)C(F)(F)F)C(F)(F)C(F)(F)F | 2.05 ± 0.14

Same assay, conditions: 343.15 K; 101 kPa; Liquid; Chromatography; x1 = 0

Structure (SMILES) | activity coefficient
c1ccccc1 [benzene] + CCCCCCCCCCn1cc[n+](CCCCCCCCCC)c1C.O=S(=O)([N-]S(=O)(=O)C(F)(F)F)C(F)(F)F | 0.434 ± 0.035
CCCCO [butan-1-ol] + CCCCCCCCCCn1cc[n+](CCCCCCCCCC)c1C.O=S(=O)([N-]S(=O)(=O)C(F)(F)F)C(F)(F)F | 1.12 ± 0.071
CCC(C)=O [butanone] + CCCCCCCCCCn1cc[n+](CCCCCCCCCC)c1C.O=S(=O)([N-]S(=O)(=O)C(F)(F)F)C(F)(F)F | 0.264 ± 0.03
C1CCCCCC1 [cycloheptane] + CCCCCCCCCCn1cc[n+](CCCCCCCCCC)c1C.O=S(=O)([N-]S(=O)(=O)C(F)(F)F)C(F)(F)F | 6.09 ± 0.41
